Measurements from patent publication US20110230477A1, “COMPOUNDS, PHARMACEUTICAL COMPOSITION AND METHODS FOR USE IN TREATING METABOLIC DISORDERS” (Euroscreen S.A., priority 2008, published 2011).

target: T1, human GPR43 receptor (hGPR43) (Homo sapiens, UniProt O15552); test: GTPγS binding assay (SPA method); assay type: biochemical; conditions: membranes expressing hGPR43; assay performed in the presence of SCFA; read-out: EC50 (nM) in GTPγ35S assay
T1 construct: expressed in transfected cells
T1 sequence (O15552 1-330): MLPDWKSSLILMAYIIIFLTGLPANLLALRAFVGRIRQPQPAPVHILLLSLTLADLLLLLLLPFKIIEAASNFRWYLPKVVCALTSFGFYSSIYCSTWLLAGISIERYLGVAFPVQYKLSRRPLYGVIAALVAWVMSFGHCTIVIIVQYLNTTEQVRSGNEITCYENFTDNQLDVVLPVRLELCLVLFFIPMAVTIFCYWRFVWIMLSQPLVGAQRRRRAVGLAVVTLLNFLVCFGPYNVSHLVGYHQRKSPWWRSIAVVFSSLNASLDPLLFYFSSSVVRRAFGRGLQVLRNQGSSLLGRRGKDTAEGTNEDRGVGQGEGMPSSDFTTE
Source text: The following assay can be used for determination of GPR43 activation. When a GPCR is in its active state, either as a result of ligand binding or constitutive activation, the receptor couples to a G protein and stimulates the release of GDP and subsequent binding of GTP to the G protein. The alpha subunit of the G protein-receptor complex acts as a GTPase and slowly hydrolyses the GTP to GDP, at which point the receptor normally is deactivated. Activated receptors continue to exchange GDP for GTP. […] The assay uses the ability of GPCR to stimulate [^35S]GTPγS binding to membranes expressing the relevant receptors. The assay can, therefore, be used in the direct identification method to screen candidate compounds to endogenous or not endogenous GPCR.
Membrane extracts were prepared from cells expressing the human GPR43 receptor (hGPR43) as follows: the medium was aspirated and the cells were scraped from the plates in Ca^++ and Mg^++-free Phosphate-buffered saline (PBS). The cells were then centrifuged for 3 min at 1500 g and the pellets were resuspended in buffer A (15 mM Tris-HCl pH 7.5, 2 mM MgCl2, 0.3 mM EDTA, 1 mM EGTA) and homogenized in a glass homogenizer. […] Protein content was assayed by the Folin method.
The assay was performed in the presence of SCFA, and was used to determine the activity of the compounds of the invention.
The [^35S]GTPγS assay was incubated in 20 mM HEPES pH7.4, 100 mM NaCl, 10 μg/ml saponin, 30 mM of MgCl2, 10 μM of GDP, 5 μg membrane-expressing hGPR43, 250 μg of wheatgerm agglutinin beads (Amersham, ref: RPNQ001), a range concentration of compounds (from 30 μM to 1 nM) in a final volume of 100 μl for 30 min at room temperature. The SCFA propionate was used at 1 mM final concentration as positive control. The plates were then centrifuged for 10 minutes at 2000 rpm, incubated for 2 hours at room temperature and counted for 1 min in a scintillation counter (TopCount, PerkinElmer).

EC50 [nM] | Compound
442 | Cc1cc(-c2csc(NC(=O)[C@@H](CC(=O)O)Cc3ccccc3)n2)c(C)s1 [Compound 102, (R)-3-benzyl-4-(4-(2,5-dimethylthiophen-3-yl)thiazol-2-ylamino)-4-oxobutanoic acid]
137 | CN(C(=O)C(CC(=O)O)CC1CCCCC1)c1nc(-c2ccccc2Cl)cs1 (centres unmarked) [Compound 103, 4-((4-(2-chlorophenyl)thiazol-2-yl)(methyl)amino)-3-(cyclohexylmethyl)-4-oxobutanoic acid]
216 | C[C@@H](c1ccccc1)[C@H](CC(=O)O)C(=O)N(C)c1nc(-c2ccccc2Cl)cs1 [Compound 106, (3S ,4R)-3-((4-(2-chlorophenyl)thiazol-2-yl)(methyl)carbamoyl)-4-phenylpentanoic acid]
361 | CN(C(=O)[C@@H](CC(=O)O)Cc1ccccc1)c1nc(-c2ccccc2-c2ccsc2)cs1 [Compound 107, (R)-3-benzyl-4-(methyl(4-(2-(thiophen-3-yl)phenyl)thiazol-2-yl)amino)-4-oxobutanoic acid]
305 | CN(C(=O)[C@@H](CC(=O)O)Cc1ccccc1)c1nc(-c2ccccc2-c2ccc(Cl)nc2)cs1 [Compound 108, (R)-3-benzyl-4-((4-(2-(6-chloropyridin-3-yl)phenyl)thiazol-2-yl)(methyl)amino)-4-oxobutanoic acid]
452 | Cc1ccc(CC(CC(=O)O)C(=O)N(C)c2nc(-c3ccccc3Cl)cs2)cc1 (centres unmarked) [Compound 110, 4-((4-(2-chlorophenyl)thiazol-2-yl)(methyl)amino)-3-(4-methylbenzyl)-4-oxobutanoic acid]
393 | CN(C(=O)[C@@H](CC(=O)O)Cc1ccccc1)c1nc(-c2ccccc2-c2ccccc2)cs1 [Compound 111, (R)-4-((4-([1,1′-biphenyl]-2-yl)thiazol-2-yl)(methyl)amino)-3-benzyl-4-oxobutanoic acid]
538 | O=C(O)C[C@@H](Cc1ccccc1)C(=O)Nc1nc(-c2cc(Cl)sc2Cl)cs1 [Compound 112, (R)-3-benzyl-4-(4-(2,5-dichlorothiophen-3-yl)thiazol-2-ylamino)-4-oxobutanoic acid]
226 | CN(C(=O)C(CC(=O)O)CC1CC1)c1nc(-c2ccccc2Cl)cs1 (centres unmarked) [Compound 113, 4-((4-(2-chlorophenyl)thiazol-2-yl)(methyl)amino)-3-(cyclopropylmethyl)-4-oxobutanoic acid]
539 | CN(C(=O)C(CC(=O)O)Cc1cscn1)c1nc(-c2ccccc2Cl)cs1 (centres unmarked) [Compound 114, 4-((4-(2-chlorophenyl)thiazol-2-yl)(methyl)amino)-4-oxo-3-(thiazol-4-ylmethyl)butanoic acid]
72 | CN(C)c1ccc(-c2ccccc2-c2csc(N(C)C(=O)[C@@H](CC(=O)O)Cc3ccccc3)n2)cn1 [Compound 115, (R)-3-benzyl-4-((4-(2-(6-(dimethylamino)pyridin-3-yl)phenyl)thiazol-2-yl)(methyl)amino)-4-oxobutanoic acid]
175 | COc1ccc(-c2ccccc2-c2csc(N(C)C(=O)[C@@H](CC(=O)O)Cc3ccccc3)n2)cn1 [Compound 116, (R)-3-benzyl-4-((4-(2-(6-methoxypyridin-3-yl)phenyl)thiazol-2-yl)(methyl)amino)-4-oxobutanoic acid]
421 | CN(C(=O)[C@@H](CC(=O)O)Cc1ccccc1)c1nc(-c2ccccc2-c2ccc(F)nc2)cs1 [Compound 119, (R)-3-benzyl-4-((4-(2-(6-fluoropyridin-3-yl)phenyl)thiazol-2-yl)(methyl)amino)-4-oxobutanoic acid]
766 | NC(=O)CN(C(=O)[C@@H](CC(=O)O)Cc1ccccc1)c1nc(-c2ccccc2Cl)cs1 [Compound 121, (R)-4-((2-amino-2-oxoethyl)(4-(2-chlorophenyl)thiazol-2-yl)amino)-3-benzyl-4-oxobutanoic acid]
134 | O=C(O)C[C@@H](Cc1ccccc1)C(=O)Nc1nc(-c2cc(Cl)ccc2Cl)cs1 [Compound 123, (R)-3-benzyl-4-((4-(2,5-dichlorophenyl)thiazol-2-yl)amino)-4-oxobutanoic acid]
183 | COC(=O)CCN(C(=O)[C@@H](CC(=O)O)Cc1ccccc1)c1nc(-c2ccccc2Cl)cs1 [Compound 126, (R)-3-benzyl-4-((4-(2-chlorophenyl)thiazol-2-yl)(3-methoxy-3-oxopropyl)amino)-4-oxobutanoic acid]
858 | COc1ccc(-c2ccccc2-c2csc(N(C)C(=O)[C@@H](CC(=O)O)Cc3ccccc3)n2)cc1 [Compound 129, (R)-3-benzyl-4-((4-(4′-methoxy-[1,1′-biphenyl]-2-yl)thiazol-2-yl)(methyl)amino)-4-oxobutanoic acid]
96 | CN(C(=O)[C@@H](CC(=O)O)Cc1ccccc1)c1nc(-c2ccccc2-c2ccc(N3CCCC3)nc2)cs1 [Compound 131, (R)-1-(5-(2-(2-(2-benzyl-3-carboxy-N-methylpropanamido)thiazol-4-yl)phenyl)pyridin-2-yl)pyrrolidin-1-ium 2,2,2-trifluoroacetate]
276 | CN(C(=O)[C@@H](CC(=O)O)Cc1ccccc1)c1nc(-c2ccccc2-c2ccc(N3CCOCC3)cc2)cs1 [Compound 132, (R)-4-(2′-(2-(2-benzyl-3-carboxy-N-methylpropanamido)thiazol-4-yl)-[1,1′-biphenyl]-4-yl)morpholin-4-ium 2,2,2-trifluoroacetate]
241 | CN(C(=O)[C@@H](CC(=O)O)Cc1ccccc1)c1nc(-c2ccccc2-c2ccc(N3CCOCC3)nc2)cs1 [Compound 133, (R)-3-benzyl-4-(methyl(4-(2-(6-morpholinopyridin-3-yl)phenyl)thiazol-2-yl)amino)-4-oxobutanoic acid]
796 | CN(C(=O)[C@@H](CC(=O)O)Cc1ccccc1)c1nc(-c2ccccc2-c2ccoc2)cs1 [Compound 135, (R)-3-benzyl-4-((4-(2-(furan-3-yl)phenyl)thiazol-2-yl)(methyl)amino)-4-oxobutanoic acid]
996 | CN(C(=O)[C@@H](CC(=O)O)Cc1ccccc1)c1nc(-c2ccccc2-c2ccc(OC3CCOCC3)nc2)cs1 [Compound 141, (R)-3-benzyl-4-(methyl(4-(2-(6-((tetrahydro-2H-pyran-4-yl)oxy)pyridin-3-yl)phenyl)thiazol-2-yl)amino)-4-oxobutanoic acid]
77 | CN(C(=O)C(CC(=O)O)Cc1ccco1)c1nc(-c2ccccc2Cl)cs1 (centres unmarked) [Compound 143]
897 | CN(C(=O)[C@@H](CC(=O)O)Cc1ccccc1)c1nc(-c2ccccc2C2CC2)cs1 [Compound 144, (R)-3-benzyl-4-((4-(2-cyclopropylphenyl)thiazol-2-yl)(methyl)amino)-4-oxobutanoic acid]
225 | CN(C(=O)[C@@H](CC(=O)O)Cc1ccccc1)c1nc(-c2ccccc2-c2ccc(Cl)cc2)cs1 [Compound 149, (R)-3-benzyl-4-((4-(4′-chloro-[1,1′-biphenyl]-2-yl)thiazol-2-yl)(methyl)amino)-4-oxobutanoic acid]
353 | CN(C(=O)[C@@H](CC(=O)O)Cc1ccccc1)c1nc(-c2ccccc2-c2ccc(N3CCCC3=O)nc2)cs1 [Compound 150, (R)-3-benzyl-4-(methyl(4-(2-(6-(2-oxopyrrolidin-1-yl)pyridin-3-yl)phenyl)thiazol-2-yl)amino)-4-oxobutanoic acid]
832 | CN(C(=O)[C@@H](CC(=O)O)CC1CCCO1)c1nc(-c2ccccc2Cl)cs1 (stereo partly drawn) [Compound 154, (3R)-4-((4-(2-chlorophenyl)thiazol-2-yl)(methyl)amino)-4-oxo-3-((tetrahydrofuran-2-yl)methyl)butanoic acid]
867 | O=C(O)C[C@@H](Cc1ccccc1)C(=O)N(CCCO)c1nc(-c2ccccc2Cl)cs1 [Compound 156, (R)-3-benzyl-4-((4-(2-chlorophenyl)thiazol-2-yl)(3-hydroxypropyl)amino)-4-oxobutanoic acid]
49 | CN(C(=O)[C@@H](CC(=O)O)Cc1ccccc1)c1nc(-c2ccccc2-c2ccc(OCc3ccccc3)nc2)cs1 [Compound 158, (R)-3-benzyl-4-((4-(2-(6-(benzyloxy)pyridin-3-yl)phenyl)thiazol-2-yl)(methyl)amino)-4-oxobutanoic acid]
